The text below walks through data of ChEMBL document CHEMBL1201862, “PubChem BioAssay data set” (2004).

Structures are written as SMILES.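 How tested: cells in 96-well plates exposed to compound for 48 hours at five concentrations. GI50 = concentration required for 50% inhibition of growth.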 Active and inactive are the calls of the source. Rule as the data show it: active = GI50 up to about 1.1 µM and inactive = higher. Where only a bound is given, the exact number is not on record here.

Among the test systems are HOP-62; OVCAR-3; MDA-MB-435; K562; TK-10; SK-MEL-5; UO-31; HL-60; EKVX; MDA-N; SNB-19; SK-MEL-28; Hs-578T; HCT-116; SR; CAKI-1; BT-549; SK-MEL-2; NCI/ADR-RES; A549.
Common to all, as to test: NCI-60 cell line screen, 48 h

With `OCCOCCN1CCN(c2nc(N3CCCC3)c3nc(Cl)c(NCc4ccccc4)nc3n2)CC1`, the GI50 was 12.6 µM (inactive) with HOP-62; 13.8 µM (inactive) in the experiment with OVCAR-3; 11.7 µM (inactive) in the experiment with MDA-MB-435; 3.94 µM (inactive) in the experiment on K562; 12.4 µM (inactive) in the experiment on TK-10; 5.55 µM (inactive) with SK-MEL-5. The GI50 is 9.4 µM (inactive) in the experiment with UO-31; 12.1 µM (inactive) with HL-60; 13.6 µM (inactive) with EKVX; 10.3 µM (inactive) in the experiment on MDA-N; 15.3 µM (inactive) with SNB-19; 14.4 µM (inactive) in the experiment on SK-MEL-28. For the same molecule, the GI50 in the experiment on Hs-578T is 17.7 µM (inactive); in the experiment with HCT-116, 12.8 µM (inactive); in the experiment on SR, 4.38 µM (inactive); with CAKI-1, 16 µM (inactive); in the experiment on BT-549, 15.3 µM (inactive); with SK-MEL-2 it was 17.5 µM (inactive). The figures for the GI50 in the experiment with NCI/ADR-RES and with A549 were 14.5 µM (inactive) and 13 µM (inactive), respectively.

Turning to `Clc1ccc(C2=C(c3ccccc3)C(c3ccc(Cl)cc3)N3C(=N[C@H]4CCCC[C@@H]43)N2)cc1` (stereo partly specified), the GI50 was 13.8 µM (inactive) in the experiment with OVCAR-3; 14.5 µM (inactive) with MDA-MB-435; 2.3 µM (inactive) in the experiment on K562; 10.5 µM (inactive) in the experiment with TK-10; 12.3 µM (inactive) in the experiment on SK-MEL-5; 13.6 µM (inactive) in the experiment on UO-31. Also, the GI50 is 3.19 µM (inactive) in the experiment on HL-60; 12.4 µM (inactive) in the experiment with EKVX; 14.7 µM (inactive) in the experiment with MDA-N; 14.5 µM (inactive) in the experiment on SNB-19; 13.7 µM (inactive) in the experiment on SK-MEL-28; 19.4 µM (inactive) in the experiment on Hs-578T. Further, the GI50 with HCT-116 was 4.08 µM (inactive); in the experiment with SR it was 2.09 µM (inactive); in the experiment with CAKI-1, 16.1 µM (inactive); with BT-549, 14.6 µM (inactive); in the experiment on SK-MEL-2, 16.4 µM (inactive); in the experiment on NCI/ADR-RES, 11.4 µM (inactive). In addition, in the experiment on A549, the GI50 was 10.3 µM (inactive).

Consider `Cc1ccc(Nc2n[nH]c(NS(=O)(=O)c3cc(C)c(Cl)cc3S)n2)cc1`, for which the GI50 in the experiment with HOP-62, in the experiment on OVCAR-3, with MDA-MB-435, with K562, with TK-10 and in the experiment on SK-MEL-5 was > 100 µM (inactive) each time. In addition, the GI50 in the experiment with UO-31, in the experiment with HL-60, with EKVX, with MDA-N, in the experiment with SNB-19 and in the experiment with SK-MEL-28 was > 100 µM (inactive) each time. Moreover, the GI50 in the experiment with Hs-578T, in the experiment on HCT-116, in the experiment with SR, in the experiment on CAKI-1, in the experiment with BT-549 and with SK-MEL-2 was > 100 µM (inactive) throughout. In addition, the GI50 with NCI/ADR-RES and in the experiment on A549 was > 100 µM (inactive) in each case.

For `CCOC(=O)/C=C(/C(=O)OCC)n1ccc(=O)n(CC(=O)OCC)c1=O`, the GI50 was 17.2 µM (inactive) with HOP-62; 1.1 µM (active) with OVCAR-3; 1.64 µM (inactive) with MDA-MB-435; 0.348 µM (active) in the experiment on K562; 1.23 µM (inactive) in the experiment with TK-10; 2.36 µM (inactive) in the experiment with SK-MEL-5. Besides, the GI50 with UO-31 is 1.63 µM (inactive); in the experiment on HL-60, 0.143 µM (active); in the experiment on EKVX it was 1.89 µM (inactive); with MDA-N, 2.44 µM (inactive); in the experiment with SNB-19 it was 10.8 µM (inactive); with SK-MEL-28, 1.68 µM (inactive). The GI50 was 4.9 µM (inactive) in the experiment with Hs-578T; 1.01 µM (active) with HCT-116; 1.35 µM (inactive) with SR; 0.146 µM (active) in the experiment on CAKI-1; 2.08 µM (inactive) in the experiment with BT-549; 4.65 µM (inactive) in the experiment with SK-MEL-2. The GI50 with NCI/ADR-RES is 2.63 µM (inactive); in the experiment with A549, 6.17 µM (inactive).

Consider `CC(C)N1CCN(c2ccncc2S(=O)(=O)N2CCCCC2)CC1`, for which the GI50 with HOP-62, in the experiment with OVCAR-3, in the experiment on MDA-MB-435, with K562, with TK-10 and in the experiment on SK-MEL-5 was > 100 µM (inactive) throughout. Also, the GI50 in the experiment on UO-31, with HL-60, in the experiment with EKVX, in the experiment with MDA-N, in the experiment on SNB-19 and with SK-MEL-28 was > 100 µM (inactive) each time. In addition, the GI50 with Hs-578T, in the experiment with HCT-116, in the experiment on SR, in the experiment on CAKI-1, with BT-549 and in the experiment with SK-MEL-2 was > 100 µM (inactive) in each case. The GI50 with NCI/ADR-RES and with A549 was > 100 µM (inactive) each time.

As to `CC1=C2C(=C[C@@](C)(CO)[C@@H]2O)C(=O)[C@](C)(O)C12CC2` [ILLUDIN], the GI50 in the experiment with HOP-62 is 0.00705 µM (active); in the experiment on OVCAR-3, 0.0187 µM (active); in the experiment with MDA-MB-435 it was 0.0156 µM (active); with K562, 0.012 µM (active); in the experiment with TK-10, 0.0223 µM (active); with SK-MEL-5 it was 0.00596 µM (active). Further, the GI50 was 0.0147 µM (active) with UO-31; 0.00427 µM (active) with HL-60; 0.027 µM (active) in the experiment with EKVX; < 0.0117 µM (active) with MDA-N; 0.0282 µM (active) in the experiment with SNB-19; 0.0167 µM (active) with SK-MEL-28. The GI50 in the experiment on Hs-578T was 0.0169 µM (active); in the experiment with HCT-116, 0.00386 µM (active); in the experiment with SR, 0.00182 µM (active); in the experiment on CAKI-1, 0.0158 µM (active); in the experiment with BT-549, 0.00658 µM (active); in the experiment on SK-MEL-2, 0.0143 µM (active). Besides, the figures for the GI50 with NCI/ADR-RES and in the experiment with A549 were 0.0074 µM (active) and 0.00458 µM (active), respectively.

As for `COC1=C(Br)[C@H](O)[C@@]2(C=C1Br)CC(C(=O)NCCCOc1c(Br)cc(C(O)CNC(C)=O)cc1Br)=NO2` (stereo partly specified) [APLYSINAMISINE III], the GI50 is > 10 µM (inactive) in the experiment on HOP-62; > 10 µM (inactive) with OVCAR-3; 2.18 µM (inactive) with MDA-MB-435; 2.24 µM (inactive) in the experiment with K562; > 10 µM (inactive) in the experiment with TK-10; 4.86 µM (inactive) in the experiment on SK-MEL-5. For the same molecule, the GI50 in the experiment with UO-31 is > 10 µM (inactive); in the experiment on HL-60 it was 2.19 µM (inactive); in the experiment with MDA-N it was 2.11 µM (inactive); in the experiment on SNB-19, > 10 µM (inactive); with SK-MEL-28, > 10 µM (inactive); in the experiment with Hs-578T, > 10 µM (inactive). Moreover, the GI50 is > 10 µM (inactive) in the experiment with HCT-116; 0.00518 µM (active) in the experiment on SR; > 10 µM (inactive) in the experiment with CAKI-1; 2.79 µM (inactive) in the experiment on BT-549; 8.79 µM (inactive) with SK-MEL-2; > 10 µM (inactive) in the experiment on NCI/ADR-RES. For the same molecule, the GI50 in the experiment on A549 was > 10 µM (inactive).

In the case of `Cc1ccc([N+](=O)[O-])cc1S(=O)(=O)Nc1ccc(C(=O)/C=C/c2ccccc2)cc1`, the GI50 with HOP-62 is 17.7 µM (inactive); in the experiment on OVCAR-3, 15.7 µM (inactive); in the experiment on MDA-MB-435 it was 19.6 µM (inactive); in the experiment on K562 it was 4.79 µM (inactive); with TK-10 it was 31.3 µM (inactive); in the experiment with SK-MEL-5, 16.3 µM (inactive). Moreover, the GI50 in the experiment with UO-31 was 18.4 µM (inactive); in the experiment on HL-60 it was 25.3 µM (inactive); in the experiment on EKVX it was 18 µM (inactive); in the experiment with MDA-N, 20.2 µM (inactive); with SNB-19 it was 18.6 µM (inactive); in the experiment on SK-MEL-28, 23.4 µM (inactive). For the same molecule, the GI50 was 50.6 µM (inactive) in the experiment on Hs-578T; 15.7 µM (inactive) in the experiment with HCT-116; 22.1 µM (inactive) in the experiment on SR; 22.2 µM (inactive) in the experiment with CAKI-1; 17.7 µM (inactive) in the experiment with BT-549; 19.1 µM (inactive) in the experiment with SK-MEL-2. The GI50 with NCI/ADR-RES is 22 µM (inactive); in the experiment with A549 it was 23.3 µM (inactive).

For `COc1ccc(/C=C(\C#N)c2nc(-c3cc4ccccc4oc3=O)cs2)cc1`, the GI50 was 15.2 µM (inactive) in the experiment with HOP-62; 37.8 µM (inactive) in the experiment with MDA-MB-435; 58.5 µM (inactive) with K562; 26.2 µM (inactive) in the experiment on TK-10; 22.1 µM (inactive) in the experiment with SK-MEL-5; 23.2 µM (inactive) with UO-31. The GI50 was > 100 µM (inactive) in the experiment with HL-60; 35 µM (inactive) in the experiment on EKVX; 44.5 µM (inactive) in the experiment on MDA-N; 16.4 µM (inactive) with SNB-19; 27.5 µM (inactive) in the experiment on SK-MEL-28; 24.6 µM (inactive) in the experiment with Hs-578T. Besides, the GI50 in the experiment on HCT-116 is 32.3 µM (inactive); in the experiment on SR, > 100 µM (inactive); in the experiment on CAKI-1, 76 µM (inactive); with BT-549, 14.2 µM (inactive); in the experiment with SK-MEL-2, 33.3 µM (inactive); in the experiment with NCI/ADR-RES, 27.2 µM (inactive). Further, in the experiment with A549, the GI50 was 32.3 µM (inactive).

For `COc1cc(C2C(C#N)=C(N)OC3=C2CCS(=O)(=O)c2ccc(C)cc23)cc(OC)c1OC` (stereo unspecified), the GI50 in the experiment on HOP-62, with OVCAR-3, in the experiment with MDA-MB-435, in the experiment on K562, in the experiment on TK-10 and in the experiment on SK-MEL-5 was > 100 µM (inactive) in each case. The GI50 in the experiment with UO-31, in the experiment with HL-60, in the experiment on MDA-N, with SNB-19, in the experiment with SK-MEL-28 and in the experiment with Hs-578T was > 100 µM (inactive) throughout. The GI50 with HCT-116 was > 100 µM (inactive); with SR, 47.8 µM (inactive); in the experiment on CAKI-1, > 100 µM (inactive); with BT-549, > 100 µM (inactive); in the experiment on SK-MEL-2 it was > 100 µM (inactive); in the experiment on NCI/ADR-RES, > 100 µM (inactive). The GI50 with A549 is > 100 µM (inactive).
